# In patent publication EP1607399B1 (priority 2000, dated 2001):
# System: RPMI 8322 human melanoma cells
# Type: cell-based
# Conditions: read-out: µM to 50% cell viability
smiles,measurement,value
Cc1ccc(S(=O)(=O)NCCOP(=O)(N(CCCl)CCCl)N(CCCl)CCCl)cc1 [Compound 23],IC50,> 500 µM
